Results from article PMC8100298, “Histone deacetylase inhibitor resminostat in combination with sorafenib counteracts platelet-mediated pro-tumoral effects in hepatocellular carcinoma” (Scientific Reports, 2021).

Legend:
[1] = tested on: Class I HDAC1, 2, 3, and 8; class II b HDAC6 and 10; and class IV HDAC11; assay: In vitro HDAC activity assay; type: biochemical, human; details: in words, from IC50 calculation (Fig. S1A)
Description: In vitro HDAC inhibition assay
The half maximal HDAC-inhibitory concentrations (IC50) of resminostat w ere determined by
in vitro HDAC activity assays (Reaction Biology Corporation RBC, Pennsylvania, USA). For
the assay, resminostat was dissolved in DMSO and a dilution series with 10 concentrations
was used. The inhibitory activity of resminostat was tested on purified recombinant human
HDAC1-11. HDAC1-11 were produced using a baculovirus express ion system (human
HDAC1: cat# 50051, BPS, California, US; human HDAC2: cat# KDA-21-277, RBC,
Pennsylvania, USA; human HDAC3: cat# KDA -22-278, RBC, Pennsylvania, USA; human
HDAC4: cat# 50004 BPS, California, US; human HDAC5: cat# KDA-21-280, RBC, […]
activities of HDAC1 to 11 were assessed using acetylated AMC (7-amino-4-methycoumarin)-
labelled fluorogenic peptide substrates: fluorogenic peptide from p53 residues 379-382 (RHKK(Ac)AMC) for HDAC1, 2, 3, 6, 10, 11; fluorogenic HDAC Class IIa Substrate (Trifluoro acetyl Lysine, Ac-LGK(TFA)-AMC) for HDAC 4, 5, 7, 9; and fluorogenic peptide from p53 residues 379-382 (RHK(Ac)K(Ac)AMC) for HDAC8. […] In a second step, the deacetylated products were digested by the addition of developer for 1 h at 30°C to produce the fluorescent signal proportional to the amount of deacetylated substrates and the fluorescence was measured using an Envision plate reader at 355 nm (excitation) and 460 nm (emission). […]

HCC cells = assay: Western blots for acetylated α-Tubulin and p21; type: cell-based; details: 1 µM or 3 µM, 24 hours (Fig. S1C)
Description: C. Western blots for acetylated α-Tubulin, total α-Tubulin, p21 and GAPDH (loading control).
Cells were treated with vehicle control (0.1 % DMSO), 1 µM or 3 µM resminostat for 24 hours. Grouped blots were composed from cropped parts of individual blots for each antibody. Original blots with exposures and indicated cropped areas can be found in the supplementary information.
D. Cell line screen determining the EC50s of resminostat in 74 cell lines representing 14 different ca ncer indications. In addition, peripheral blood mononuclear cells (PBMCs) from healthy donors were tested. Each dot represents an EC50.
(100×, 78440; Thermo Scientific, Massachusetts, US). Following incubation for 1 h at 4°C, […]
(§1) The protein concentration of the
Fisher Scientific, Massachusetts, US ). Equal amounts of protein lysates and a pre-stained […]
(§2) US) and transferred to PVDF membranes. The membranes were probed using the relevant […]
of the blots to X-ray films. […]
to adjust brightness and contrast across entire images. No other image manipulations were […]
intracellular FACS staining.

PLC/PRF/5 HCC cells = assay: Intracellular flow cytometry (AcLys, H3K27Ac); type: cell-based; details: 1 µM or 3 µM, 24 hours (Fig. S1B)
Description: Supplemental Figures and Figure legends
Figure S1. Inhibition of cancer cell growth by the broad-spectrum HDACI resminostat
A. Inhibition of HDAC1 to 11 by resminostat determined by in vitro HDAC activity assays.
IC50 data from three independent experiments are shown as mean ± SD.
B. Intracellular flow cytometry using antibodies targeting acetyl lysine (AcLys) and the H3K27
acetylation mark (H3K27Ac). IgG isotype controls were used for each antibody. PLC/PRF/5
HCC cells were treated with vehicle control ( 0.1 % DMSO), 1 µM or 3 µM resminostat for 24
hours. For AcLys, the geometric mean fluore scence intensities (gMFI) are shown. For
H3K27Ac, the ratios of the gMFIs for H3K27Ac relative to Histone H3 are shown. D ata of
three technical replicates are presented as mean ± SD.
(1 picture or pasted object on this page, not shown here)
(100×, 78440; Thermo Scientific, Massachusetts, US). Following incubation for 1 h at 4°C,
as §1
Fisher Scientific, Massachusetts, US ). Equal amounts of protein lysates and a pre-stained
as §2
secondary fluorescence labelled antibodies for 45 min in the dark at RT, washed twice in […]
cells were measured using the Miltenyi MACSQuant Analyser 10 (Miltenyi) and analysed with […]
counted in a Neubauer chamber before the required number of platelets was activated by […]

With `CN(C)Cc1ccc(S(=O)(=O)n2ccc(/C=C/C(=O)NO)c2)cc1` [resminostat, Resminostat] the “inhibition of HDAC activity” value [1] was “inhibits the activity”, the “acetylation of α-Tubulin” value (HCC cells) was “hyperacetylation” and the p21 protein (HCC cells) was “accumulation”. For the same compound, the “acetylation of histone mark H3K27” value (PLC/PRF/5 HCC cells) was “hyperacetylation” and the “global acetylation level (AcLys)” value (PLC/PRF/5 HCC cells) was “increase of the global acetylation level in HCC cells in a dose-dependent manner”.
